Measured values as given in ChEMBL document CHEMBL1177832, “One unique steroidal sapogenin obtained through the microbial transformation of ruscogenin by Phytophthora cactorum ATCC 32134 and its potential inhibitory effect on tissue factor (TF) procoagulant activity” (Bioorg Med Chem Lett, 2010).

The molecules below were run on THP-1 (assay: Anticoagulant activity in human THP1 cells assessed as inhibition of TNF-alpha-stimulated tissue factor expression incubated 1 hr before TNFalpha challenge measured after 5 hrs).
Type: functional, cell-based
C[C@@H]1CC[C@@]2(OC1)O[C@H]1C[C@H]3[C@@H]4CCC5=CC(=O)C[C@@H](O)[C@]5(C)[C@H]4CC[C@]3(C)[C@H]1[C@@H]2C was tested, and the IC50 was 290 nM.
In the case of COc1cc(/C=C/C(=O)CC(=O)/C=C/c2ccc(O)c(OC)c2)ccc1O [CURCUMIN], the IC50 is reported as 1210 nM.
C[C@@H]1CC[C@@]2(OC1)O[C@H]1C[C@H]3[C@@H]4CC=C5C[C@@H](O)CC[C@]5(C)[C@H]4CC[C@]3(C)[C@H]1[C@@H]2C [DISOGENIN] gave an IC50 of 6960 nM.
C[C@@H]1CC[C@@]2(OC1)O[C@H]1C[C@H]3[C@@H]4CC=C5C[C@@H](O)C[C@@H](O)[C@]5(C)[C@H]4CC[C@]3(C)[C@H]1[C@@H]2C [RUSCOGENIN] was tested, and the IC50 was 2270 nM.
Work on C[C@H]1CC[C@@]2(OC1)O[C@H]1C[C@H]3[C@@H]4CC[C@@H]5C[C@@H](O)CC[C@]5(C)[C@H]4CC[C@]3(C)[C@H]1[C@@H]2C [SARSASAPOGENIN] yielded an IC50 of 3300 nM.
